Source: US20240226287A1, “NOVEL LIPID COMPOUND AND LIPID NANOPARTICLE COMPOSITION COMPRISING THE SAME” (KOREA INSTITUTE OF SCIENCE AND TECHNOLOGY, priority 2022, published 2024)

Test system: Renilla Luciferase (R/L) mRNA
Assay: Delivery efficiency: R/L protein expression after i.d. injection of mRNA-LNP into mouse ears (luminescence)
Assay type: in vivo, ICR mice
Conditions: conclusion from FIGS. 4 to 8; replacing cholesterol/butyl lithocholate in LNP
Description: mRNA-LNP was injected into the ears of ICR mice by I.D. in an amount of 5 μg/20 μl based on RNA to identify expression.
The experimental process is as follows. Each experimental group was prepared in a dose of 5 μg/20 μl based on RNA and then injected into each ear of mice by I.D. Thereafter, the expression was identified according to the maximum expression time of a target protein. In the case of R/L on which the experiment was actually carried out, expression and maintenance were identified according to two time periods which are 6 hours and 24 hours.
After anesthesia using an individual respiratory anesthesia machine, a drug to be administered that is suitable for the experimental condition was injected via an insulin syringe. Thereafter, euthanasia was performed using CO2 at each corresponding time, and then ears were cut off. While dipping the cut ears in 300 μl of 1× Renilla Lyswas buffer, ears were completely crushed using scissors and a homogenizer instrument. Thereafter, 20 μl was taken from the mixture solution, transferred to a white 96-well plate, and added with 100 μl of Promega's Renilla luciferase assay substrate, and then luminescence was measured to compare expression.

SMILES: C[C@H](CCC(=O)O)[C@H]1CC[C@H]2[C@@H]3CC[C@@H]4CC(=O)CC[C@]4(C)[C@H]3CC[C@]12C [3-oxo-5β-cholanoic acid]
- effect as substitute for the structure-retaining compound (R/L expression of the LNP): excellent effects

SMILES: CC1=C(/C=C/C(C)=C/C=C/C(C)=C/C=C/C=C(C)/C=C/C=C(C)/C=C/C2=C(C)CCCC2(C)C)C(C)(C)CCC1 [beta-carotene]
- effect as substitute for the structure-retaining compound (R/L expression of the LNP): excellent effects

SMILES: O=c1cc(-c2ccc(O)c(O)c2)oc2cc(O)cc(O)c12 [luteolin]
- effect as substitute for the structure-retaining compound (R/L expression of the LNP): excellent effects
